Results published in ChEMBL document CHEMBL1145323, “Synthesis and biological activity of amide derivatives of nimbolide” (Bioorg Med Chem Lett, 2006).

Tests used:
Type in all cases: functional, cell-based
SW-60 = assay: Antiproliferative activity against […]
HT-29 = assay: Antiproliferative activity against human HT29 cell line
PC-3 = assay: Antiproliferative activity against human PC3 cell line
A549 = assay: Antiproliferative activity against human A549 cell line
HOP-62 = assay: Antiproliferative activity against human HOP62 cell line
OVCAR-5 = assay: Antiproliferative activity against human OVCAR5 cell line
[1] = Homo sapiens, HT-29, read-out: IC50
[2] = Homo sapiens, PC-3, read-out: IC50
[3] = Homo sapiens, OVCAR-5, read-out: IC50
[4] = Homo sapiens, SW-60, read-out: IC50
[5] = Homo sapiens, A549, read-out: IC50
[6] = Homo sapiens, HOP-62, read-out: IC50

Row | IC50 (SW-60; sw-60) | IC50 (HT-29; [1]) | IC50 (PC-3; [2]) | IC50 (A549; a549) | IC50 (OVCAR-5; [3]) | IC50 (SW-60; [4]) | IC50 (A549; [5]) | IC50 (PC-3; pc-3) | IC50 (OVCAR-5; ovcar-5) | IC50 (HT-29; ht-29) | SMILES | IC50 (HOP-62; hop-62) | IC50 (HOP-62; [6])
1 | Not Active | 47.2 µM | 43.1 µM | Not Active | 89.2 µM | – | – | – | – | – | COC(=O)C[C@H]1[C@]2(C)C3=C(C)[C@H](c4ccoc4)C[C@H]3O[C@@H]2[C@H](O)[C@@H]2[C@]1(C)C(=O)C=C[C@@]2(C)C(=O)NC(C)c1ccccc1 (stereo partly specified) | Not Active | –
2 | – | 3.38 µM | 2.26 µM | Not Active | 2.11 µM | 5.72 µM | – | – | – | – | COC(=O)C[C@H]1[C@]2(C)C3=C(C)[C@H](c4ccoc4)C[C@H]3O[C@@H]2[C@H](O)[C@@H]2[C@]1(C)C(=O)C=C[C@@]2(C)C(=O)N1CCOCC1 | Not Active | –
3 | Not Active | 91.5 µM | 48.2 µM | – | 62.3 µM | – | 78.3 µM | – | – | – | COC(=O)C[C@H]1[C@]2(C)C3=C(C)[C@H](c4ccoc4)C[C@H]3O[C@@H]2[C@H](O)[C@@H]2[C@]1(C)C(=O)C=C[C@@]2(C)C(=O)N1CCCCC1 | Not Active | –
4 | Not Active | 43.2 µM | – | Not Active | 82.4 µM | – | – | Not Active | – | – | COC(=O)C[C@H]1[C@]2(C)C3=C(C)[C@H](c4ccoc4)C[C@H]3O[C@@H]2[C@H](O)[C@@H]2[C@]1(C)C(=O)C=C[C@@]2(C)C(=O)NCc1ccccc1 | – | 26.3 µM
5 | Not Active | 8.62 µM | 8.11 µM | Not Active | – | – | – | – | Not Active | – | COC(=O)C[C@H]1[C@]2(C)C3=C(C)[C@H](c4ccoc4)C[C@H]3O[C@@H]2[C@H](O)[C@@H]2[C@]1(C)C(=O)C=C[C@@]2(C)C(=O)NC(C(=O)OC)c1ccccc1 (stereo partly specified) | – | 13.5 µM
6 | – | 17.5 µM | 32.3 µM | – | – | 26.4 µM | 37.3 µM | – | Not Active | – | COC(=O)C[C@H]1[C@]2(C)C3=C(C)[C@H](c4ccoc4)C[C@H]3O[C@@H]2[C@H](O)[C@@H]2[C@]1(C)C(=O)C=C[C@@]2(C)C(=O)NCc1ccc(C(F)(F)F)cc1 | – | 14.1 µM
7 | Not Active | 78.1 µM | – | Not Active | 84.1 µM | – | – | Not Active | – | – | COC(=O)C[C@H]1[C@]2(C)C3=C(C)[C@H](c4ccoc4)C[C@H]3O[C@@H]2[C@H](O)[C@@H]2[C@]1(C)C(=O)C=C[C@@]2(C)C(=O)NCc1ccc(F)cc1 | Not Active | –
8 | Not Active | – | 21.5 µM | Not Active | 93.1 µM | – | – | – | – | Not Active | COC(=O)C[C@H]1[C@]2(C)C3=C(C)[C@H](c4ccoc4)C[C@H]3O[C@@H]2[C@H](O)[C@@H]2[C@]1(C)C(=O)C=C[C@@]2(C)C(=O)NCc1ccc(OC)cc1 | – | 102 µM
9 | Not Active | 63.1 µM | – | Not Active | – | – | – | Not Active | Not Active | – | COC(=O)C[C@H]1[C@]2(C)C3=C(C)[C@H](c4ccoc4)C[C@H]3O[C@@H]2[C@H](O)[C@@H]2[C@]1(C)C(=O)C=C[C@@]2(C)C(=O)NCc1cccc(OC)c1 | – | 79.2 µM
10 | – | 0.05 µM | 7.43 µM | Not Active | 1.53 µM | 0.08 µM | – | – | – | – | COC(=O)C[C@H]1[C@]2(C)C3=C(C)[C@H](c4ccoc4)C[C@H]3O[C@@H]2[C@H](O)[C@@H]2[C@]1(C)C(=O)C=C[C@@]2(C)C(=O)NCC(C)C | – | 4.83 µM
11 | – | 6.94 µM | 4.59 µM | – | 4.17 µM | 8.25 µM | 15.6 µM | – | – | – | COC(=O)C[C@H]1[C@]2(C)C3=C(C)[C@H](c4ccoc4)C[C@H]3O[C@@H]2[C@@H]2OC(=O)[C@]3(C)C=CC(=O)[C@@]1(C)[C@@H]23 [NIMBOLIDE] | – | 10.4 µM
